Data: patent publication US12187709B2 (Genentech, Inc., priority 2021, dated 2025)
pIC50, pKd: −log10 of the molar value.

How the values were obtained:
[1] = target: Cbl-b (Homo sapiens (Human), UniProt Q13191); assay: Cbl-b LCK Ub TR-FRET assay (Cbl-b Lck HTRF); type: biochemical; details: for pIC50: Cbl-b LCK Ub TR-FRET; for (fold-selectivity) Cbl-b and C-Cbl Selectivity / fold-selectivity (Cbl-b over C-cbl): ratio C-cbl Lck HTRF IC50 / Cbl-b Lck HTRF IC50
Outline: (§1)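 Detection reagents added, brief spin, 20 min RT. IC50 fit normalized to no-LCK (low) and DMSO (high) controls.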

[2] = target: c-Cbl (Homo sapiens (Human), UniProt P22681); assay: C-Cbl LCK Ub TR-FRET assay (C-cbl Lck HTRF); type: biochemical
Outline: as §1

[3] = target: Human Cbl-b (residues 40-426) (Homo sapiens (Human), UniProt Q13191); assay: Cbl-b SPR assay; type: binding; details: for Fold of selectivity: C-cbl SPR Kd vs Cbl-b SPR Kd; for pKd: SPR, 20° C.
Outline: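 Binding was measured by SPR and fitted to a 1:1 model from multi-cycle kinetics with double referencing, 6 concentrations in 2-fold dilution. Alternatively, single-cycle titrations up to 500 nM (120 s contact) were fitted with kd fixed from a single-exponential fit of chaser-measured % compound bound versus time.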

[4] = target: c-Cbl (residues 47-435) (Homo sapiens (Human), UniProt P22681); assay: c-Cbl SPR assay; type: binding; details: 20° C.
Protocol: Affinity of binding to Cbl-b and c-Cbl for compounds described herein was assessed by surface plasmon resonance (SPR) according to the following protocol.
A surface capture range of 1300-1500 RU of protein was used for both isoforms.
For SPR measurements, 6 concentrations with 2 fold serial dilution were measured with blanks flanking each series for double referencing. […] SPR sensorgrams were recorded in multi-cycle kinetics format, with a contact time of 60 seconds and a flow rate of 40 μl/min, the dissociation time was varied between 120-1200 seconds aiming for 4-5 half-lives of the measured interaction.
Kinetic and affinity parameters were extracted from the multicycle kinetics data fitting to a 1:1 binding model using the Biacore™ Incyte evaluation software (Cytiva).
Chaser assay utilize a single cycle kinetics SPR experiment with a contact time of 120 seconds, a flow rate of 50 μl/min and a dissociation time of 450 seconds. Single cycle kinetics titration utilized an initial blank injection and 5 concentrations with 2 fold serial dilution with a maximum concentration of 500 nM, blanked to a preceding 6 point blank single cycle kinetics injection for double referencing.
The kd is measured independently by determining the percentage unoccupied compound binding site over time by measuring the binding of a chaser compound measured by SPR.
Chaser binding was measured by a multicycle kinetics SPR experiment using a contact time of 20 seconds, a flow rate of 30 μl/min, and a dissociation time of 120 seconds. […] The % compound bound at a given time was determined by comparison to a single injection of chaser preceding the single cycle kinetics titration defined below. % Compound Bound=(1−(RUT/RUT0))*100
The % compound bound is plotted against time in seconds and fit to a single exponential, where the exponent represents the kd of the compound-protein complex. The single cycle kinetics experiment of the compound is then fit with a fixed kd determined using the chaser.

Sequence of c-Cbl (P22681 47-435): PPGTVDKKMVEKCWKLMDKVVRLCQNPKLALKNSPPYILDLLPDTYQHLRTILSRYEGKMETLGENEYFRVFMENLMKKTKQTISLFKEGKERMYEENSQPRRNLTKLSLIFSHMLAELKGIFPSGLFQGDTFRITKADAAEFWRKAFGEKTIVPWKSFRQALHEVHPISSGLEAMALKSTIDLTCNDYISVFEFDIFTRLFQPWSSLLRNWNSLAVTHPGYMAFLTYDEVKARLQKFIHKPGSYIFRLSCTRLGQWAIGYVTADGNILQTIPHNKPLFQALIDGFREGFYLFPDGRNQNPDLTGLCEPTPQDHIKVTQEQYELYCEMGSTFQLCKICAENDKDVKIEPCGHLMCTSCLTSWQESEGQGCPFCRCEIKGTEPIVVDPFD
Sequence of c-Cbl (residues 47-435) (P22681 47-435): as above
Sequence of Cbl-b (Q13191 40-426): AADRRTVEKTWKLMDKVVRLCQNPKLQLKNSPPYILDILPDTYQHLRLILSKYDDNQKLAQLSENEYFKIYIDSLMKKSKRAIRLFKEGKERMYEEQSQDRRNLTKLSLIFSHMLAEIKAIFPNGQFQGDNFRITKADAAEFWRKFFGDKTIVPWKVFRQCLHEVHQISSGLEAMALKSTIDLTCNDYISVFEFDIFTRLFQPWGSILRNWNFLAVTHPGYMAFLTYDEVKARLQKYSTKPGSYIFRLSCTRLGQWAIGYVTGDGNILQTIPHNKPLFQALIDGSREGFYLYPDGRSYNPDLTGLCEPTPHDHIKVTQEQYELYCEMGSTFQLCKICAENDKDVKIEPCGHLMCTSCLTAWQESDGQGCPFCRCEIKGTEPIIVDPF
Sequence of Human Cbl-b (residues 40-426) (Q13191 40-426): as above

| pIC50 ([1]; Example 121) | (fold-selectivity) Cbl-b and C-Cbl Selectivity [1] [x] | pIC50 [2] | Fold of selectivity [3] [×] | pKd [3] | pKd [4] | pIC50 [1] | fold-selectivity (Cbl-b over C-cbl) [1] | SMILES |
| --- | --- | --- | --- | --- | --- | --- | --- | --- |
| 8.07 | 3.0 | 7.59 | 22 | 8.70 | 7.36 |  |  | CO[C@H]1C[C@](c2cccc(N3Cc4c(cc(CNC[C@@H]5[C@@H](C)C5(F)F)cc4C(F)(F)F)C3=O)c2)(c2nncn2C)C1 [Compound 503, 6-(((((1S,3R)-2,2-difluoro-3-methylcyclopropyl)methyl)amino)methyl)-2-(3-((1r,3S)-3-methoxy-1-(4-methyl-4H-1,2,4-triazol-3-yl)cyclobutyl)phenyl)-4-(trifluoromethyl)isoindolin-1-one] |
|  |  | 6.49 | 12 | 7.77 | 6.70 | 7.36 | 7.2x | CO[C@H]1C[C@](c2cc(NC3CCCC3)cc(N3Cc4c(cc(CNC5(C)CCC5)cc4C(F)(F)F)C3=O)c2)(c2nncn2C)C1 [Compound 209, 2-(3-(cyclopentylamino)-5-((1r,3r)-3-methoxy-1-(4-methyl-4H-1,2,4-triazol-3-yl)cyclobutyl)phenyl)-6-(((1-methylcyclobutyl)amino)methyl)-4-(trifluoromethyl)isoindolin-1-one] |
| 7.55 | 8.5 | 6.64 | 7.8 | 7.74 | 6.85 |  |  | COCCC1(NCc2cc3c(c(C(F)(F)F)c2)CN(c2cccc([C@]4(c5nncn5C)C[C@H](OC)C4)c2)C3=O)CCC1 [Compound 493, 2-(3-((1r,3r)-3-methoxy-1-(4-methyl-4H-1,2,4-triazol-3-yl)cyclobutyl)phenyl)-6-(((1-(2-methoxyethyl)cyclobutyl)amino)methyl)-4-(trifluoromethyl)isoindolin-1-one] |
| 7.82 | 5.3 | 7.11 | 7.7 | 8.03 | 7.12 |  |  | Cn1cnnc1[C@]1(c2cccc(N3Cc4c(cc(CNC5(C)CCC5)cc4C(F)(F)F)C3=O)c2)C[C@@](O)(C(F)F)C1 [Compound 405, 2-(3-((1s,3s)-3-(difluoromethyl)-3-hydroxy-1-(4-methyl-4H-1,2,4-triazol-3-yl)cyclobutyl)phenyl)-6-(((1-methylcyclobutyl)amino)methyl)-4-(trifluoromethyl)isoindolin-1-one] |
|  |  | 6.72 | 4.0 | 7.28 | 6.70 | 7.19 | 3.0x | Cn1cnnc1C1(c2cccc(N3Cc4c(cc(CNC5(C)CCC5)cc4C(F)(F)F)C3=O)c2)CC2(C1)OCCO2 [Compound 293, 2-(3-(2-(4-methyl-4H-1,2,4-triazol-3-yl)-5,8-dioxaspiro[3.4]octan-2-yl)phenyl)-6-(((1-methylcyclobutyl)amino)methyl)-4-(trifluoromethyl)isoindolin-1-one] |
|  |  | 7.64 | 8.7 | 8.08 | 7.14 | 7.82 | (1.5x) | CC(C)[C@H]1CN(C)CCN1Cc1cc2c(c(C(F)(F)F)c1)CN(c1cc([C@]3(c4nncn4C)C[C@@H](C)C3)cc(NC3CCCC3)n1)C2=O [Compound 74, 2-(6-(cyclopentylamino)-4-((1S,3R)-3-methyl-1-(4-methyl-4H-1,2,4-triazol-3-yl)cyclobutyl)pyridin-2-yl)-6-(((S)-2-isopropyl-4-methylpiperazin-1-yl)methyl)-4-(trifluoromethyl)isoindolin-1-one] |
|  |  | 8.39 | 4.7 | 9.52 | 8.85 | 8.31 | 0.82x | Cn1cnnc1C1(c2cccc(N3Cc4c(cc([C@@H](CO)NC5(C)CCC5)cc4C(F)(F)F)C3=O)c2)CCC1 (single isomer, unassigned) [Compound 149] |
|  |  | 6.41 | 11 | 6.96 | 5.92 | 6.70 | 1.9x | Cn1cnnc1[C@]1(c2cccc(N3Cc4c(cc(CNC5(C)CCC5)cc4C(F)(F)F)C3=O)c2)C[S@+]([O-])C1 [Compound 330, 2-(3-((1s,3s)-3-(4-methyl-4H-1,2,4-triazol-3-yl)-1-oxidothietan-3-yl)phenyl)-6-(((1-methylcyclobutyl)amino)methyl)-4-(trifluoromethyl)isoindolin-1-one] |
|  |  | 8.10 | 3.0 | 9.52 | 9.05 | 8.00 | 0.8x | CCNc1cc(N2Cc3c(cc(CNC4(C)CCC4)cc3C(F)(F)F)C2=O)cc([C@]2(c3nncn3C)C[C@@H](C)C2)c1 [Compound 91, 2-(3-(ethylamino)-5-((1s,3s)-3-methyl-1-(4-methyl-4H-1,2,4-triazol-3-yl)cyclobutyl)phenyl)-6-(((1-methylcyclobutyl)amino)methyl)-4-(trifluoromethyl)-isoindolin-1-one] |
|  |  | 8.01 | 4.9 | 9.07 | 8.38 | 8.04 | 1.1x | Cn1cnnc1[C@]1(c2cccc(N3Cc4c(cc(CNC5(C)CCC5)cc4C(F)(F)F)C3=O)c2)C[C@@H](CF)C1 [Compound 101, 2-(3-((1r,3r)-3-(fluoromethyl)-1-(4-methyl-4H-1,2,4-triazol-3-yl)cyclobutyl)phenyl)-6-(((1-methylcyclobutyl)amino)methyl)-4-(trifluoromethyl)isoindolin-1-one] |
|  |  | 7.92 | 4.7 | 8.82 | 8.17 | 8.05 | 1.3x | CCNc1cc(N2Cc3c(cc(CNC4(C)CCC4)cc3C(F)(F)F)C2=O)cc([C@]2(c3nncn3C)C[C@H](OC)C2)c1 [Compound 210, 2-(3-(ethylamino)-5-((1r,3r)-3-methoxy-1-(4-methyl-4H-1,2,4-triazol-3-yl)cyclobutyl)phenyl)-6-(((1-methylcyclobutyl)amino)methyl)-4-(trifluoromethyl)isoindolin-1-one] |
| 8.28 | 1.4 | 8.12 | 7 | 8.80 | 7.92 |  |  | Cn1cnnc1[C@@H](c1cccc(N2Cc3c(cc(CNCC(C)(C)C)cc3C(F)(F)F)C2=O)c1)C1COC1 (single isomer, unassigned) [Compound 468] |
| 7.66 | 4.0 | 7.07 | 7.6 | 7.80 | 6.92 |  |  | CO[C@H]1C[C@](c2cccc(N3Cc4c(cc(CN[C@H](C)C5CCC5)cc4C(F)(F)F)C3=O)c2)(c2nncn2C)C1 [Compound 467] |
|  |  | 8.08 | 6.3 | 9.38 | 8.60 | 8.12 | 1.1x | CO[C@H]1C[C@](c2cccc(N3Cc4c(cc([C@@H](C)NC5(C)CCC5)cc4C(F)(F)F)C3=O)c2)(c2nncn2C)C1 (single isomer, unassigned) [Compound 184] |
| 8.06 | 3.3 | 7.64 | 13 | 8.44 | 7.35 |  |  | CO[C@H]1C[C@](c2cccc(N3Cc4c(cc(CNC5(C)CC5)cc4C(F)(F)F)C3=O)c2)(c2nncn2C)C1 [Compound 475, 2-(3-((1r,3r)-3-methoxy-1-(4-methyl-4H-1,2,4-triazol-3-yl)cyclobutyl)phenyl)-6-(((1-methylcyclopropyl)amino)methyl)-4-(trifluoromethyl)isoindolin-1-one] |
| 6.14 | 5.5 | 5.41 | 5.8 | 6.38 | 5.60 |  |  | CO[C@H]1C[C@@](c2cccc(N3Cc4ccc(CNC5(C)CCC5)cc4C3=O)c2)(c2nncn2C)C1 [Compound 448, 2-(3-((1s,3s)-3-methoxy-1-(4-methyl-4H-1,2,4-triazol-3-yl)cyclobutyl)phenyl)-6-(((1-methylcyclobutyl)amino)methyl)isoindolin-1-one] |
